Results: patent US20260014171A1, “COMPOSITION FOR THE USE IN THE TREATMENT OF POLYCYSTIC OVARY SYNDROME” (LO.LI. PHARMA S.R.L., priority 2023, published 2026)

What was measured:
Format in all cases: cell-based
IGFBP-1 [1] = assay: IGFBP-1 protein quantification by western blot in co-cultured bovine theca and granulosa cells; details: Phase 1: FSH (46 h), LH + insulin, then exogenous IGF-1 100 ng/ml 48 h; vs untreated control
Protocol: (§1) The anti-proliferative activity of Dioscorea villosa, Vitamin D, and α-lactalbumin was investigated (alone or in combination) in cultured bovine theca and granulosa cells (co-culture). To investigate the properties of these natural molecules, the inventors evaluated their effect on cell viability, proliferation, and apoptosis.
(§2) Bovine theca and granulosa were co-cultured, (DMEM, High glucose 5% FBS, […], 1% Pen/Strep, 1% Amphotericin B, 1% Glutamine) for 7 days. The cells were grown in petri dishes and treated shortly before reaching 80% confluence. […]
(§3) The expression of insuline like growth factor IGF-1 and IGF-BP1 insulin like growth factor binding protein 1 were both measured by Real Time PCR and western blot, to investigate the effects of the treatment with the raw materials; namely, Dioscorea villosa, Vitamin D and α-lactalbumin alone or in combination.
(§4) The results were measured as 2^−ΔΔCt for the mRNA assay. Both for the Real Time PCR and western blot analyses, the data are expressed as fold increases in relation to the housekeeping genes. Proliferation (ki67 western blot assay) and apoptosis (caspase-9 western blot assay) assessed the expression as per the experimental conditions reported above.
(§5) Co-cultured bovine theca and granulosa cells; grown as described in phase 1. The expression of IGF-1 and IGF-BP1 were analyzed after treatment with Dioscorea villosa. […]

caspase-9 [2] = assay: Apoptosis (caspase-9 western blot assay) in co-cultured bovine theca and granulosa cells
Protocol: as §1, §2, §4, §5
(§6) The results were measured as […] for the mRNA assay. Both for the Real Time PCR and western blot analyses, the data are expressed as fold increases in relation to the housekeeping genes. […]
(§7) The results were measured as […] for the mRNA assay. […]

IGF-1 [3] = assay: IGF-1 gene expression by Real Time PCR in co-cultured bovine theca and granulosa cells; details: Phase 1: FSH (46 h), LH 1.5 UI/ml + insulin 100 ng/ml 10 min, then exogenous IGF-1 100 ng/ml 48 h; vs untreated control
Protocol: as §1, §2, §3, §4, §5

ki-67 [4] = assay: ki-67 gene expression (mRNA) in co-cultured bovine theca and granulosa cells; details: Phase 1: FSH (46 h), LH + insulin, then exogenous IGF-1 100 ng/ml 48 h; vs untreated control
Protocol: as §1, §2, §4, §5, §6, §7

ki-67 [5] = assay: Proliferation (ki67 western blot assay) in co-cultured bovine theca and granulosa cells
Protocol: as §1, §2, §4, §5, §6, §7

caspase-9 [6] = assay: caspase-9 gene expression (mRNA) in co-cultured bovine theca and granulosa cells; details: Phase 1: FSH (46 h), LH + insulin, then exogenous IGF-1 100 ng/ml 48 h; vs untreated control
Protocol: as §1, §2, §4, §5, §6, §7

IGFBP-1 [7] = assay: IGFBP-1 gene expression by Real Time PCR in co-cultured bovine theca and granulosa cells; details: Phase 1: FSH (46 h), LH + insulin, then exogenous IGF-1 100 ng/ml 48 h; vs untreated control
Protocol: as §1, §2, §3, §4, §5

IGF-1 [8] = assay: IGF-1 protein quantification by western blot in co-cultured bovine theca and granulosa cells; details: Phase 1: FSH (46 h), LH + insulin, then exogenous IGF-1 100 ng/ml 48 h; vs untreated control
Protocol: as §1, §2, §3, §4, §5

[9] = Phase 1: FSH (46 h), LH + insulin, then exogenous IGF-1 100 ng/ml 48 h, vs untreated control
[10] = Results text: treatment with IGF-1 (48 h)

IGF-1: exogenous insulin like growth factor IGF-1, 100 ng/ml for 48 h, used as proliferative stimulus
quantification of IGFBP-1 protein (IGFBP-1 [1]): not significant
quantification of caspase-9 protein (caspase-9 [2]; [9]): not significant
rate of apoptosis observed in the cell culture (caspase-9 [2]; [10]): reduction in the rate of apoptosis
gene expression of IGF-1 (mRNA) (IGF-1 [3]): significant increase
gene expression of ki-67 (mRNA) (ki-67 [4]): significant increase
quantification of ki-67 protein (ki-67 [5]; [9]): significant increase
proliferative effect (ki-67 [5]; [10]): strong proliferative effect
gene expression of caspase-9 (mRNA) (caspase-9 [6]): not significant
gene expression of IGFBP-1 (mRNA) (IGFBP-1 [7]): not significant
quantification of IGF-1 protein (IGF-1 [8]): significant increase
